Tested on: PA-HA from several FluA strains
Format: binding, influenza A virus

CC[C@H](C)[C@H](NC(=O)[C@H](C)NC(=O)[C@H](CC(N)=O)NC(=O)[C@H](CCC(N)=O)NC(=O)[C@H](C)NC(=O)[C@@H]1CCCN1C(=O)[C@@H](NC(=O)[C@H](CCCCN)NC(=O)[C@H](CC(C)C)NC(=O)[C@H](Cc1ccccc1)NC(=O)[C@H](CC(C)C)NC(=O)[C@H](CC(C)C)NC(=O)[C@@H](NC(=O)[C@@H]1CCCN1C(=O)[C@H](CC(N)=O)NC(=O)[C@@H](NC(=O)[C@H](CC(=O)O)NC(=O)[C@@H](N)CCSC)C(C)C)[C@@H](C)O)C(C)C)C(=O)N[C@@H](CO)C(=O)N[C@H](C(=O)N[C@H](C(=O)N[C@@H](Cc1ccccc1)C(=O)N1CCC[C@H]1C(=O)N[C@@H](Cc1ccc(O)cc1)C(=O)N[C@H](C(N)=O)[C@@H](C)O)[C@@H](C)O)[C@@H](C)O [PB1_1–25A] was tested, and the “Binding of FluA PA-HA to immobilized peptide” value was “bound”.

Reference: publication PMC2759517 (PLoS ONE, 2009)
